In ChEMBL document CHEMBL1201862, “PubChem BioAssay data set” (2004):
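A five-concentration, 48-hour dose response in 96-well plates underlies each endpoint, interpolated linearly between surrounding concentrations. GI50 = concentration required for 50% inhibition of growth.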 Calls of active or inactive are those of the source. Cut-off read from the data, not from the text of the source: active = GI50 up to about 1.1 µM and inactive = higher.

Experiments:
Test in all cases: NCI anticancer screen, dose series, 48 h
[1] = system: UACC-62
[2] = system: NCI-H23
[3] = system: SNB-75
[4] = system: HCT-116
[5] = system: U-251
[6] = system: OVCAR-4
[7] = system: OVCAR-3
[8] = system: TK-10
[9] = system: HOP-92
[10] = system: LXFL 529
[11] = system: HOP-62
[12] = system: UACC-257
[13] = system: SK-MEL-28
[14] = system: UO-31
[15] = system: SNB-19
[16] = system: HCC 2998
[17] = system: OVCAR-5
[18] = system: NCI-H522
[19] = system: RPMI-8226

Measured: GI50

COc1ccc(S(=O)(=O)N/N=C(\C)CN2C(=O)c3ccccc3C2=O)cc1OC
inactive: [1] > 100 µM | [2] > 100 µM | [3] > 100 µM | [4] > 100 µM | [5] > 100 µM | [6] > 100 µM | [7] > 100 µM | [8] > 100 µM | [9] > 100 µM | [10] > 100 µM | [11] > 100 µM | [12] > 100 µM | [13] > 100 µM | [14] > 100 µM | [15] > 100 µM | [16] > 100 µM | [17] > 100 µM | [18] > 100 µM | [19] > 100 µM

O=c1/c(=C/c2ccco2)sc2nc3ccccc3n12
inactive: [1] > 10 µM | [2] > 10 µM | [3] 27 µM | [4] > 10 µM | [5] > 10 µM | [6] > 10 µM | [7] > 10 µM | [8] 50 µM | [9] > 10 µM | [10] > 10 µM | [11] > 100 µM | [12] > 10 µM | [13] > 10 µM | [14] > 10 µM | [15] > 10 µM | [16] > 10 µM | [17] > 10 µM | [18] > 10 µM | [19] > 10 µM

c1ccc([S+](c2ccccc2)c2ccc(Sc3ccc([S+](c4ccccc4)c4ccccc4)cc3)cc2)cc1
inactive: [1] 24 µM | [2] 3.06 µM | [3] 19.2 µM | [4] 21.8 µM | [5] 15.7 µM | [6] 20.6 µM | [7] 10.2 µM | [8] 36.2 µM | [9] 27.6 µM | [10] 18 µM | [11] 39.7 µM | [12] 12.5 µM | [13] 34.7 µM | [14] 60 µM | [15] 7.64 µM | [16] 20.2 µM | [17] 12.3 µM | [18] 12 µM | [19] 4.88 µM

Cc1cc(=O)oc2c1cc(OCC(=O)OCCN1CCCCC1)c1occ(C)c12
inactive: [1] > 100 µM | [2] > 100 µM | [3] > 100 µM | [4] > 100 µM | [5] > 100 µM | [6] > 100 µM | [7] > 100 µM | [8] > 100 µM | [9] > 100 µM | [10] > 100 µM | [12] > 100 µM | [13] > 100 µM | [14] > 100 µM | [15] > 100 µM | [16] > 100 µM | [17] > 100 µM | [19] > 100 µM

CC(=O)NC(CCCNC(=O)OCc1ccccc1)C(=O)NCc1ccccc1 (configuration not stated)
inactive: [1] > 100 µM | [2] > 100 µM | [3] 41.8 µM | [4] > 100 µM | [5] > 100 µM | [6] > 100 µM | [7] > 100 µM | [8] > 100 µM | [9] > 100 µM | [10] > 100 µM | [11] > 100 µM | [12] > 100 µM | [13] > 100 µM | [14] > 100 µM | [15] > 100 µM | [16] > 100 µM | [17] > 100 µM | [18] > 100 µM | [19] > 100 µM

CNC(=O)N(CCCC(NC(C)=O)C(=O)NCc1ccccc1)Cc1ccccc1 (configuration not stated)
inactive: [1] > 100 µM | [2] > 100 µM | [3] 28.6 µM | [4] > 100 µM | [5] > 100 µM | [6] > 100 µM | [7] > 100 µM | [8] > 100 µM | [9] > 100 µM | [10] > 100 µM | [11] > 100 µM | [12] > 100 µM | [13] > 100 µM | [14] > 100 µM | [15] > 100 µM | [16] > 100 µM | [17] > 100 µM | [18] > 100 µM | [19] > 100 µM

COC(=O)CC[C@@H](NC(=O)C(C)NC(=O)COC1C(O)C(COC(=O)CCCCCCCCCCNC(=O)c2ccc([N+](=O)[O-])c3[nH]c4cc(Br)ccc4c(=O)c23)OC(OCc2ccccc2)C1NC(C)=O)C(N)=O (some centres not stated)
inactive: [1] 65.8 µM | [2] > 100 µM | [3] > 100 µM | [4] > 100 µM | [5] > 100 µM | [6] > 100 µM | [7] 25.7 µM | [8] > 100 µM | [9] 37.1 µM | [10] 26.2 µM | [11] 83.8 µM | [12] > 100 µM | [13] > 100 µM | [14] > 100 µM | [15] 94 µM | [16] 22.5 µM | [17] 37.3 µM | [18] 32.7 µM | [19] 39.7 µM

C=C1CC2C(=O)N(c3ccccc3)C(=O)C2CC1n1[nH]c(=O)n(Cc2ccccc2)c1=O (configuration not stated)
inactive: [1] > 100 µM | [2] > 100 µM | [3] > 100 µM | [4] > 100 µM | [5] > 100 µM | [6] > 100 µM | [7] > 100 µM | [8] > 100 µM | [9] > 100 µM | [10] > 100 µM | [11] > 100 µM | [12] > 100 µM | [13] > 100 µM | [14] > 100 µM | [15] > 100 µM | [16] > 100 µM | [17] > 100 µM | [18] > 100 µM | [19] > 100 µM

Cc1ccc2nc3c(C(=O)NCCN(C)C)cccc3nc2c1
inactive: [1] 4.35 µM | [2] 4.26 µM | [3] 5.48 µM | [4] 1.59 µM | [5] 5.55 µM | [6] 4.69 µM | [7] 5.38 µM | [8] 3.73 µM | [9] 2.38 µM | [10] 7.38 µM | [11] 3.85 µM | [12] 3.8 µM | [13] 4.7 µM | [15] 5.96 µM | [16] 6.05 µM | [17] 6.34 µM | [18] 8.81 µM | [19] 3.6 µM

C/C=C1\CN2CCc3c([nH]c4ccccc34)C2CC1C(=O)OC (configuration not stated)
inactive: [1] > 322 µM | [2] > 322 µM | [4] > 322 µM | [5] > 322 µM | [7] > 322 µM | [8] > 322 µM | [9] 169 µM | [10] > 322 µM | [11] > 322 µM | [12] > 322 µM | [13] > 322 µM | [15] > 322 µM | [16] > 322 µM | [17] > 322 µM | [18] 287 µM | [19] > 322 µM

S=c1c2ccccc2c(=S)n2n1CC=CC2
inactive: [1] > 100 µM | [2] > 100 µM | [3] 68.1 µM | [4] > 100 µM | [5] > 100 µM | [6] > 100 µM | [7] > 100 µM | [8] > 100 µM | [9] > 100 µM | [10] > 100 µM | [12] > 100 µM | [13] > 100 µM | [14] > 100 µM | [15] > 100 µM | [16] > 100 µM | [17] > 100 µM | [18] 75.7 µM | [19] > 100 µM
